Legend:
[1] = microbe, parasite or virus in culture; details: Mycobacterium tuberculosis, 96 h, read-out: pIC50 (converted)
[2] = microbe, parasite or virus in culture; details: Mycobacterium tuberculosis, 72 h, read-out: pIC50 (converted)

SMILES	IC50 [1]	IC50 [2]
COCCNCC(=O)Nc1cccc(CSC)c1	> 501 µM	374 µM
CSCCC(CO)NC(=O)c1occc1C(C)C (stereo not given)	> 501 µM	258 µM
CN(C)C1(CN)Cc2ccccc2C1	127 µM	81.5 µM
COCCCN(C)S(=O)(=O)c1ccc(Br)cn1	206 µM	278 µM
Cc1cc(C(=O)NCCCN(C)CC(F)(F)F)no1	> 501 µM	> 501 µM
Fc1cc(Cl)cnc1N1CCCNCC1	> 501 µM	34.3 µM
NCC(CO)Cc1cc(F)cc(Br)c1 (stereo not given)	264 µM	305 µM
CCOc1ccc(C(C)=O)cc1CN1CCCC1	111 µM	59.8 µM
CC1CCCN(S(=O)(=O)N(C)Cc2ccco2)C1 (stereo not given)	> 501 µM	> 501 µM
NCc1noc(-c2ccc(Cl)cc2F)n1	242 µM	277 µM
CCN(CCC(N)=O)Cc1cccc2c1OCO2	272 µM	258 µM
N#CC1(C(=O)N2CCc3sccc3C2)CCCC1	167 µM	475 µM
CNC(=O)CN(C)C(=O)CCc1ccc(Br)cc1F	166 µM	108 µM
CCS(=O)(=O)NCCNS(=O)(=O)c1ccc(C)cc1Cl	> 501 µM	> 501 µM
Cc1cc(NC(C)CN2CCOCC2)ncc1Br (stereo not given)	> 501 µM	420 µM
Clc1ccc(CSc2cnn[nH]2)s1	267 µM	236 µM
C=C(C)CSc1nnnn1Cc1ccco1	55.3 µM	51.6 µM
CN(Cc1ccco1)C(=O)CN1CCc2sccc2C1	89.2 µM	60 µM
CC(C)N(C)S(=O)(=O)NCCc1cccs1	206 µM	182 µM
COc1cccc(CCN)n1	192 µM	194 µM
CN(C)C(=O)CCCn1nnc(-c2ccsc2)n1	155 µM	89.8 µM
CNC(=O)NC(=O)C(C)Nc1cccc(C)c1 (stereo not given)	190 µM	201 µM
CC(C)N(CCS(=O)(=O)c1ccccc1)CC(N)=O	> 501 µM	435 µM
CCc1cccc(S(=O)(=O)N2CC[C@H](N)C2)c1	> 501 µM	183 µM
CC(=O)c1ccc(NCC(=O)NC(C)C(C)C)cc1 (stereo not given)	182 µM	182 µM
COc1cccc2c1CCNCC2	348 µM	271 µM
COCCNC(=O)Nc1ccc2c(c1)OC(C)(C)O2	170 µM	65.7 µM
c1ccc(OCCCOC2CNC2)cc1	> 501 µM	177 µM

SMILES	IC50 [1]	IC50 [2]
COC(=O)[C@H](C)NC(=O)c1noc2c1CCCCC2	> 501 µM	238 µM
OCC(Nc1ncccc1Br)c1ccccc1 (stereo not given)	327 µM	184 µM
CC(=O)NCC1CN(c2ncccc2F)CCO1 (stereo not given)	210 µM	243 µM
CCN1CCN(C(=O)C2CCCOC2)c2ccccc21 (stereo not given)	276 µM	158 µM
Cc1nn(C)c2nc(NCCSc3ncn[nH]3)sc12	> 501 µM	> 501 µM
CN(CC(=O)Nc1ccsc1)C(=O)c1ccco1	> 501 µM	> 501 µM
CCOC(=O)C(C)Nc1ccc2oc(=O)[nH]c2c1 (stereo not given)	292 µM	311 µM
CCC(C)Oc1cc(C(=O)NCC2(O)CCC2)ccn1 (stereo not given)	29.6 µM	62.8 µM
OC(CN1CCn2ccnc2C1)c1ccc(Cl)cc1 (stereo not given)	> 501 µM	186 µM
CC(C)(C)c1ccc2c(c1)C(N)C(=O)N2 (stereo not given)	260 µM	377 µM
CCc1cccc2c1N(C(=O)[C@@H](N)CC)CC2	> 501 µM	244 µM
CCOc1cc(NCc2ncc(C)o2)ncn1	> 501 µM	153 µM
CCN1CCN(C(C)CNC(=O)Cn2cnnn2)CC1 (stereo not given)	> 501 µM	> 501 µM
NC(=O)CN(Cc1ccc(Br)cc1)C(=O)c1ccco1	> 501 µM	427 µM
CC(C)c1cc(N)[nH]n1	> 501 µM	> 501 µM
COCC(=O)N1CCC2(CC1)OCCO2	> 501 µM	> 501 µM
CC(C)N(CCOc1cccc(F)c1)CC(N)=O	199 µM	210 µM
OCCNC1CCCC1	> 501 µM	> 501 µM
CC(Cn1c(=O)[nH]c2ccccc2c1=O)N1CCCC1 (stereo not given)	111 µM	63.1 µM
CC(NC(=O)CNc1cc(F)cc(Br)c1)C(=O)N(C)C (stereo not given)	> 501 µM	289 µM
COC(=O)CCCC(=O)N1CCCc2ccccc2C1	> 501 µM	180 µM
N#CCCn1ncc2c(NCc3cccs3)ncnc21	> 501 µM	399 µM
CC1CCCN1C1CCN(CCNS(C)(=O)=O)CC1 (stereo not given)	> 501 µM	> 501 µM
CSc1c(F)cc(NC(=O)NCCO)cc1F	> 501 µM	> 501 µM
Cc1ccc(C(=O)NCC(=O)NC(C)(C)C)c(O)c1	> 501 µM	> 501 µM
COCCN(C)C(=O)Nc1cccc(Cl)c1	282 µM	> 501 µM
C[C@@]1(O)CCN(C(=O)CN)C[C@@H]1Cc1ccccc1	174 µM	219 µM

Source: ChEMBL document CHEMBL3988442, “University of Dundee, Small-Polar-MMV Screening Library” (2021)
